Columns and labels:
Assay in all cases: DSF thermal shift, kinase panel
Assay type in all cases: binding
Details in all cases: 10 μM compound
BMXA = target: T1, BMXA (Homo sapiens, UniProt P51813)
T1 construct: purchased in-house (home-made panel, SGC-style construct names)
T1 sequence (P51813 1-675): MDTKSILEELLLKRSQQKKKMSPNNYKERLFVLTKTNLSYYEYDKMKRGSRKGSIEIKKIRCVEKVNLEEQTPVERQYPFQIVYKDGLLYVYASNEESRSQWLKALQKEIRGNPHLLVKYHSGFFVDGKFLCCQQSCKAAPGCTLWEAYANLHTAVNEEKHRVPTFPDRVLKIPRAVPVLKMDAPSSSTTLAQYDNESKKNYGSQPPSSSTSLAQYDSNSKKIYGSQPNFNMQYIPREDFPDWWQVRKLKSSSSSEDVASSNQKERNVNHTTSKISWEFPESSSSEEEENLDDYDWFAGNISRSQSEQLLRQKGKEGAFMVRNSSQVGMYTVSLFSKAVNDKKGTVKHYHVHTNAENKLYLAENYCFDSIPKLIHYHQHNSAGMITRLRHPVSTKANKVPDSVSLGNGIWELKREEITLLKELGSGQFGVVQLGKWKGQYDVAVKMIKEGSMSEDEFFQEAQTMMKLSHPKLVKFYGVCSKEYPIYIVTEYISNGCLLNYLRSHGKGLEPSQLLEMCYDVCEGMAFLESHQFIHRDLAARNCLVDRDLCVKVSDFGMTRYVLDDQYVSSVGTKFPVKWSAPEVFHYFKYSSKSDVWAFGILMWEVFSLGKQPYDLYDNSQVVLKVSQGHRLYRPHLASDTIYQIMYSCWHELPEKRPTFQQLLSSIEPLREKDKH
Description: (§1) The corresponding dianilino-TDZs (1–5) were tested on a panel of 46 protein kinases representing the major kinome branches at a concentration of 10 μM using a Differential Scanning Fluorimetry (DSF). Only analogues 1–3 induced a significant (>2 °C) thermal shift when incubated with a subset of the proteins (Table 1).
(§2) Kinase selectivity assay—A home-made kinase panel was generated for the following enzymes: AAK1, BMP2K, BMX, BRAF, CAMK1D, CAMK1G, CAMKK1, CAMKK2B, CDC42BPA, CDK2, CDKL1, CHEK2, CLK1, CSNK1G1, CSNK1G3, CSNK2A1, DYRK1A, DYRK2A, EPHA2, GAK, GSG2, MAPK1, MAP2K7, MAPK14B, MAPK3, PHKG2, PIM1, PLK1, PKMYT1, PRPF4B, RPS6KA1A, RPS6KA5A, RPS6KA6A, SLK, SRPK1, SRPK2, STK3, STK6, STK10, STK17A, STK24, STK38L, TRIB2, TTK, VRK1 and VRK2. Proteins were produced in E. coli, purified in a Ni-chelate column, followed by overnight digestion using TEV protease (made in house with an N-terminal 6xHis tag) and dialysis to remove imidazole. To clear samples of uncleaved proteins and the TEV protease, samples were loaded on new Ni-chelate columns. The flow through was collected, concentrated and loaded to a HiLoad Superdex 200 16/600 column (GE Healthcare, Chicago, IL, USA) for final polishing and buffer exchange.
(§3) Starting from 100 µM protein stocks, our kinase panel enzymes were diluted to 1 µM in buffer 100 mM K2HPO4 pH 7.5 containing 150 mM NaCl, 10% glycerol and 5X dye (Applied Biosystems catalogue 4461806). The protein/dye mixture was transferred to a 384-well PCR microplate having 20 µL per well. Compounds in DMSO at 10 mM concentration were added in 20 nL volume, using a liquid handling device setup with a pin head, to make 10 µM compound concentration in the assay plate.
(§4) Protein thermal shift data was measured in a qPCR instrument (Applied Biosystems QuantStudio 6) programmed to equilibrate the plate at 25 °C for 5 min followed by ramping the temperature to 95 °C at a rate of 0.05 °C/s. Data was processed using Protein Thermal shift software (Applied Biosystems) by fitting experimental curves to a Boltzmann function to calculate differential thermal shifts (dTm) referenced to protein/dye in 0.2% DMSO.

CDC42BPA = target: T2, CDC42BPA (Homo sapiens, UniProt Q5VT25)
T2 construct: purchased in-house (home-made panel, SGC-style construct names)
T2 sequence (Q5VT25 whole entry): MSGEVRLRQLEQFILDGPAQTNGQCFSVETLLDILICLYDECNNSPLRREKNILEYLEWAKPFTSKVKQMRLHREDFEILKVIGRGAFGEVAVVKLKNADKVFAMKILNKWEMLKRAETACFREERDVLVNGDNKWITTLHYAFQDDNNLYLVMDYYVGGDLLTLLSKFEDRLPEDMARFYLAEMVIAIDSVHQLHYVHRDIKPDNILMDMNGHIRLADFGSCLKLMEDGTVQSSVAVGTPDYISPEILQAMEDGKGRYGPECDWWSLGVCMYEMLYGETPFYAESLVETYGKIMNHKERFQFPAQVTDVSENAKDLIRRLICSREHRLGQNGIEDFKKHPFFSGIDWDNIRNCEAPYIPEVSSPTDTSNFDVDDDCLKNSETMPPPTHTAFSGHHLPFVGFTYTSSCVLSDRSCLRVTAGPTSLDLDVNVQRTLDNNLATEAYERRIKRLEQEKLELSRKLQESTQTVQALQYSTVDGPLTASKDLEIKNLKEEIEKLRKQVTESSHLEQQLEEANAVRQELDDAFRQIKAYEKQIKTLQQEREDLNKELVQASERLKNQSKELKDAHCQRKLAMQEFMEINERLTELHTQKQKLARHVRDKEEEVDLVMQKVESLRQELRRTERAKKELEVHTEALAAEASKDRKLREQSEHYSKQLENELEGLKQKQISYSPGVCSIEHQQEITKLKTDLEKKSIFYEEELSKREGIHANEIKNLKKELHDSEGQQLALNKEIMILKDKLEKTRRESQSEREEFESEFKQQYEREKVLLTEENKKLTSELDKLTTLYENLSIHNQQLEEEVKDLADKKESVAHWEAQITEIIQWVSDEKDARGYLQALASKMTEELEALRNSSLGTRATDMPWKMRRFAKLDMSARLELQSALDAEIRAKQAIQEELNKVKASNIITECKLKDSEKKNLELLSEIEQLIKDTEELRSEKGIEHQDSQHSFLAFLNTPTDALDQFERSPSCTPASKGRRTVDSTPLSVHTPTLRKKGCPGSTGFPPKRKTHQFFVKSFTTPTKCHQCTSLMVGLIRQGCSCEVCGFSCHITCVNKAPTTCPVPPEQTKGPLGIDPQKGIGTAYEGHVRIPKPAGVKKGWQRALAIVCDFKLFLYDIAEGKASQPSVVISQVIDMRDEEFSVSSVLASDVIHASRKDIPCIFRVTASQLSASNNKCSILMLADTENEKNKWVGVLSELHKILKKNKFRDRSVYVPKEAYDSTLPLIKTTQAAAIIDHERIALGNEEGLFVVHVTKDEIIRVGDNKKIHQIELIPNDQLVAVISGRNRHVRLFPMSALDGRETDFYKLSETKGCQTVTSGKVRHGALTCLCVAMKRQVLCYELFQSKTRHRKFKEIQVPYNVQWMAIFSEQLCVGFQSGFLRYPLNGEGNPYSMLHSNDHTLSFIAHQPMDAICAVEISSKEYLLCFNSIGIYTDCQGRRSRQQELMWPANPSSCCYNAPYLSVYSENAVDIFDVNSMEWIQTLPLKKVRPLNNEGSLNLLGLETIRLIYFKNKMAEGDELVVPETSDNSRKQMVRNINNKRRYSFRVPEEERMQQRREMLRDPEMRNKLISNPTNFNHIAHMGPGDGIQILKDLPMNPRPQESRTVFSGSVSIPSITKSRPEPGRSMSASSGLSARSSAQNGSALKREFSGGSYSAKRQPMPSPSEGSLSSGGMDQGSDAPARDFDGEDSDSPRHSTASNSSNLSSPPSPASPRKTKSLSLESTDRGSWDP
Description: as §1, §2, §3, §4

VRK1 = target: T3, VRK1 (Homo sapiens, UniProt Q99986)
T3 construct: TEV-cleavable (cleaved yes); made in house; host or cells: E. coli
T3 sequence (Q99986 1-396): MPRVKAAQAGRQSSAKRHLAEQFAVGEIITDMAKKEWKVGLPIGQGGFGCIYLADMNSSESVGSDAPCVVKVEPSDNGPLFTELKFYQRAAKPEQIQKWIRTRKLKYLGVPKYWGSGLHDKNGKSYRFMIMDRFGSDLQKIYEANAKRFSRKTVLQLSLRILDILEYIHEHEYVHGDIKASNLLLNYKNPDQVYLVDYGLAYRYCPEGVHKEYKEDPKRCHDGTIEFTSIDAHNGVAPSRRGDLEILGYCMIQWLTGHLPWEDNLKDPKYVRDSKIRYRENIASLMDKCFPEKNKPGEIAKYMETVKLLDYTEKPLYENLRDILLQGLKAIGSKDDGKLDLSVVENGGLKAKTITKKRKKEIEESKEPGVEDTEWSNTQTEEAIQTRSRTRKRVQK
Description: as §1, §2, §3, §4

STK10A = target: T4, STK10A (Homo sapiens, UniProt O94804)
T4 construct: TEV-cleavable (cleaved yes); made in house; host or cells: E. coli
T4 sequence (O94804 whole entry): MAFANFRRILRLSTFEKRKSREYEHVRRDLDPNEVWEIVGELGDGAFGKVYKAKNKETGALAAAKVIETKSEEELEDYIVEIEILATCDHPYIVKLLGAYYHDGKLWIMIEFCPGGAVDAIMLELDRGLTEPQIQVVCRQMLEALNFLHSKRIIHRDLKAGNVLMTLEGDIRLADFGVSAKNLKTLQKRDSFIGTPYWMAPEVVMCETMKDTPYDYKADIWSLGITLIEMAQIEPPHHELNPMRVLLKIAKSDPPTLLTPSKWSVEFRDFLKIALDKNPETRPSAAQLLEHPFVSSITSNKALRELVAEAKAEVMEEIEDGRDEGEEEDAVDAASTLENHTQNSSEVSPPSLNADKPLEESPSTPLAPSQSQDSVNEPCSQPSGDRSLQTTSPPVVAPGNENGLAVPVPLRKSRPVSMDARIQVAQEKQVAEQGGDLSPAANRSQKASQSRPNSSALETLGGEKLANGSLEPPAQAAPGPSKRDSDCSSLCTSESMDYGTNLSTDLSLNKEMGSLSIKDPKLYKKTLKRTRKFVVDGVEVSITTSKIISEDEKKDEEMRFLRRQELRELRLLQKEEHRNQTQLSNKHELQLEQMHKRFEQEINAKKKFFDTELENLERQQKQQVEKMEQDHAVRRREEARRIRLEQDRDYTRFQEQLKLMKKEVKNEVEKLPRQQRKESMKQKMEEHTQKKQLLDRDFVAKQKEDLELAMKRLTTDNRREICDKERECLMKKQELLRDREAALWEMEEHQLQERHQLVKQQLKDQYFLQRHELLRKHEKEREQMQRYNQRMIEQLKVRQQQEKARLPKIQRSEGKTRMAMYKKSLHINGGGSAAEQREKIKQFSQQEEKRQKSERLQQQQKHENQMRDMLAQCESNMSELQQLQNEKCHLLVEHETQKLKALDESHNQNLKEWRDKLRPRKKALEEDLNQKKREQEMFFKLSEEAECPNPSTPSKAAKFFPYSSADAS
Description: as §1, §2, §3, §4

PRPF4BA = target: T5, PRPF4BA (Homo sapiens, UniProt Q13523)
T5 construct: purchased in-house (home-made panel, SGC-style construct names)
T5 sequence (Q13523 whole entry): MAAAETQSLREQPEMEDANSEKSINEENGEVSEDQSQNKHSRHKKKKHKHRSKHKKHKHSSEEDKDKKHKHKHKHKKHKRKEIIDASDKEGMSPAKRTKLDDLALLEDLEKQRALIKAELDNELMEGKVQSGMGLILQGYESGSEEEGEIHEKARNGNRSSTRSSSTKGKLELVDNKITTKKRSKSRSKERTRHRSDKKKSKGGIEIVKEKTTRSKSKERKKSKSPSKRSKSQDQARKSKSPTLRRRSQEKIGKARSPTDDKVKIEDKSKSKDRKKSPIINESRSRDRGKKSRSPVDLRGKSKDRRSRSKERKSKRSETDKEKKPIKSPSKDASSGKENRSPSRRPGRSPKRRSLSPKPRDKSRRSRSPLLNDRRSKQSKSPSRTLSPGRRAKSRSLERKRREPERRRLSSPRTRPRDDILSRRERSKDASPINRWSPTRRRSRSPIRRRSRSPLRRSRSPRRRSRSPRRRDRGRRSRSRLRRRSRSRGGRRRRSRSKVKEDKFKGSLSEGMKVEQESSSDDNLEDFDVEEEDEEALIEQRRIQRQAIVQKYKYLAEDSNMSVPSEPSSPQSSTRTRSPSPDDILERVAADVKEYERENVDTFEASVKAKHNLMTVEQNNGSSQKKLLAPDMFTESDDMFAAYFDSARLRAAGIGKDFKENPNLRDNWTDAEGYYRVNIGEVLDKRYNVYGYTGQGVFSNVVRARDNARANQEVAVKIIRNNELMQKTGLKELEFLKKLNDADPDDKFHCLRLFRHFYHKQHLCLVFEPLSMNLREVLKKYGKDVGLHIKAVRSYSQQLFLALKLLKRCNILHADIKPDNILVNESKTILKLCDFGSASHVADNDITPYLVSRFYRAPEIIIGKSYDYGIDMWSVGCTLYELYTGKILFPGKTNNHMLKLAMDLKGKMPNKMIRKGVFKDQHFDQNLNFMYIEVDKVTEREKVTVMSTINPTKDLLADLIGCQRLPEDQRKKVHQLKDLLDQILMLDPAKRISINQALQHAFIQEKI
Description: as §1, §2, §3, §4

MAPK3A = target: T6, MAPK3A (Homo sapiens, UniProt P27361)
T6 construct: purchased in-house (home-made panel, SGC-style construct names)
T6 sequence (P27361 whole entry): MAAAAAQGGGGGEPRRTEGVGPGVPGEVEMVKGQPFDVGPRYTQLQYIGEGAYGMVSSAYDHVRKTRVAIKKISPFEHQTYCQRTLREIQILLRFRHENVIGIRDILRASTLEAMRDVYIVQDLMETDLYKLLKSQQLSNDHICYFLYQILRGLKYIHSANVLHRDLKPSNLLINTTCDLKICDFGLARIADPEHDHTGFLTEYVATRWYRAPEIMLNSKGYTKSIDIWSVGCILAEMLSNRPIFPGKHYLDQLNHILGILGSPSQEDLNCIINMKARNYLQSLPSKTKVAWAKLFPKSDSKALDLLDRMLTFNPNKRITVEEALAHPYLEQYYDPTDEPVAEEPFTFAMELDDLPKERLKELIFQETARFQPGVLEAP
Description: as §1, §2, §3, §4

CDK2 = target: T7, CDK2 (Homo sapiens, UniProt P24941)
T7 construct: purchased in-house (home-made panel, SGC-style construct names)
Description: as §1, §2, §3, §4

SRPK2A = target: T8, SRPK2A (Homo sapiens, UniProt P78362)
T8 construct: purchased in-house (home-made panel, SGC-style construct names)
T8 sequence (P78362 whole entry): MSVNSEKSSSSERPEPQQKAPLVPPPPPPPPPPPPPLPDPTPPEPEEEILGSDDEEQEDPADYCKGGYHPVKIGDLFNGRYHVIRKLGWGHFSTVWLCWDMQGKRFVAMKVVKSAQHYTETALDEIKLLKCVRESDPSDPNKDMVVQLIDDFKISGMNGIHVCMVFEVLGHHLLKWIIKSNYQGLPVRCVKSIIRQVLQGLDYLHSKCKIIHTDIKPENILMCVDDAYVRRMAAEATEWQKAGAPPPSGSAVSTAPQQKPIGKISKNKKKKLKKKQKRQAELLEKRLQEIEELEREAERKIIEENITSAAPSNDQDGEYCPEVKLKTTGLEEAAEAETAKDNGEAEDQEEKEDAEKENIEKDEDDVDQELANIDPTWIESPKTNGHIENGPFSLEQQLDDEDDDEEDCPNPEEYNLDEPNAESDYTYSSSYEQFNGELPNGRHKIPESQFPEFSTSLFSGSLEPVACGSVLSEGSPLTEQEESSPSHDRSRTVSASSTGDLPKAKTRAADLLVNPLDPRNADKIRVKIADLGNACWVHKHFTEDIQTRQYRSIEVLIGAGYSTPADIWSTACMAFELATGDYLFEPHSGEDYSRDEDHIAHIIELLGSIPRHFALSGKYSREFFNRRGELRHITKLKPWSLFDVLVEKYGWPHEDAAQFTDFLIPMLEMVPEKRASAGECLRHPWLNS
Description: as §1, §2, §3, §4

TRIB2A = target: T9, TRIB2A (Homo sapiens, UniProt Q92519)
T9 construct: TEV-cleavable (cleaved yes); made in house; host or cells: E. coli
T9 sequence (Q92519 1-343): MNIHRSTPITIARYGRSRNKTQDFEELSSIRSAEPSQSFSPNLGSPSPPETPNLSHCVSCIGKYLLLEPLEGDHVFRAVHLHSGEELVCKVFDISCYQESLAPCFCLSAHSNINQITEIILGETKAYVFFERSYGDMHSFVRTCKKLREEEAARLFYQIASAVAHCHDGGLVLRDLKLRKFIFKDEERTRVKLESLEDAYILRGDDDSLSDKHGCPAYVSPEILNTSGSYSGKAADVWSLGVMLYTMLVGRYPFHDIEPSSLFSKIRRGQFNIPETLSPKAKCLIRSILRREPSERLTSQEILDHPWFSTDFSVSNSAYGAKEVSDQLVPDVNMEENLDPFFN
Description: as §1, §2, §3, §4

Compound	ΔTm at 10 µM (BMXA) [°C]	ΔTm at 10 µM (CDC42BPA) [°C]	ΔTm at 10 µM (VRK1) [°C]	ΔTm at 10 µM (STK10A) [°C]	ΔTm at 10 µM (PRPF4BA) [°C]	ΔTm at 10 µM (MAPK3A) [°C]	ΔTm at 10 µM (CDK2) [°C]	ΔTm at 10 µM (SRPK2A) [°C]	ΔTm at 10 µM (TRIB2A) [°C]	ΔTm (TRIB2A; 10 µM)
Cc1ccc(Nc2nsnc(Nc3cccc(C(N)=O)c3)c2=O)cc1O [Compound 1, 3-({5-[(3-Hydroxy-4-methylphenyl)amino]-4-oxo-4H-1,2,6-thiadiazin-3-yl}amino)benzamide]	0.1	0.3	-0.4	0.5	0.7	0.1	0.2	-0.2	2.5	
Cc1ccc(Nc2nsnc(Nc3ccc(C(N)=O)cc3)c2=O)cc1O [Compound 2, 4-({5-[(3-Hydroxy-4-methylphenyl)amino]-4-oxo-4H-1,2,6-thiadiazin-3-yl}amino)benzamide]	-0.1	4.8	-0.7	0.9	0.1	1.2	2.7	0.6		
Cc1ccc(Nc2nsnc(Nc3ccc4c(c3)CS(=O)(=O)C4)c2=O)cc1O [Compound 3, 3-[(2,2-Dioxido-1,3-dihydrobenzo[c]thiophen-5-yl)amino]-5-[(3-hydroxy-4-methylphenyl)amino]-4H-1,2,6-thiadiazin-4-one]	0	2.3	-0.2	2.2	0.6	0.4	1.8	0.1	4.9	
CNC(=O)c1ccccc1Nc1nsnc(Nc2cccc(CS(C)(=O)=O)c2)c1=O [Compound 4, N-Methyl-2-([5-({3-[(methylsulfonyl)methyl]phenyl}amino)-4-oxo-4H-1,2,6-thiadiazin-3-yl]-amino}-benzamide]	0	-0.8	-0.3	0.2	0.1	0.1	0.2	-0.3	~1	1,0 °C
CNC(=O)c1ccccc1Nc1nsnc(Nc2ccc(N3CCOCC3)cc2)c1=O [Compound 5, N-Methyl-2-({5-[(4-morpholinophenyl)amino]-4-oxo-4H-1,2,6-thiadiazin-3-yl}amino)benzamide]	0	-0.6	-0.3	-0.4	0.1	0.1	-0.1	-0.1	~1	
